The source of these data is US20240270821A1, “GIP/GLP1/GCG TRI-RECEPTOR AGONISTS AND USES THEREOF” (priority 2023, published 2024).

Where two headings read alike, the source gives them in different places. Starred links: 1 amine or outer side, 2 acyl side, 3 side chain; linkers in the order of their positions; H or OH if unused. Non-standard residues stand in square brackets, D forms with d. Groups on a side chain read outwards from the residue. No end group written: not given here. *: point of attachment. C20 diacid = O=C(O)CCCCCCCCCCCCCCCCCCC(=O)*; C18 diacid = O=C(O)CCCCCCCCCCCCCCCCC(=O)*; Phe(4-CN) = N#Cc1ccc(C[C@H](N)C(=O)O)cc1; αMePhe(2-F) = C[C@](N)(Cc1ccccc1F)C(=O)O; γGlu = O=C(O)[C@H](CCC(=O)[*:2])N[*:1]; αMe4Pal = C[C@](N)(Cc1ccncc1)C(=O)O; αMeY = C[C@](N)(Cc1ccc(O)cc1)C(=O)O; 4Pal = N[C@@H](Cc1ccncc1)C(=O)O; αMeL = CC(C)C[C@](C)(N)C(=O)O; αMeS = C[C@](N)(CO)C(=O)O; Orn = NCCC[C@H](N)C(=O)O; AEEA = NCCOCCOCC(=O)O; Aib = CC(C)(N)C(=O)O

Holding throughout (assay type): cell-based
In assay [1] the target is T1, hGIPR (Homo sapiens, UniProt P48546).
T1 sequence (P48546 22-466): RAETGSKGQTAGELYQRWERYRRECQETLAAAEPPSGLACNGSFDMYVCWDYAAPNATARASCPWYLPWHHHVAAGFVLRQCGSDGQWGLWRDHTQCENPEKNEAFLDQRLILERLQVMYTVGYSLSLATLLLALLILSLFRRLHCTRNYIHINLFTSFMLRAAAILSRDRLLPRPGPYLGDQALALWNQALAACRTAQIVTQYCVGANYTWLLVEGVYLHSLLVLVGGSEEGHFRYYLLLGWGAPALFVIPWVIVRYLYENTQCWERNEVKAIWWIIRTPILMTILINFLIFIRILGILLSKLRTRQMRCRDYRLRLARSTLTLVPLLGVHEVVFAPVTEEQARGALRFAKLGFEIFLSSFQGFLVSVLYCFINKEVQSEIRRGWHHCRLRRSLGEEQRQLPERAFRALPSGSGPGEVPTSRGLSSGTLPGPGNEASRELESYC
Kind of assay: Functional cAMP activity in the presence of 1% HSA. As to conditions: read-out: cAMP Rel EC50, hGIPR.

Assay [2] has as its target T2, hGLP-1R (Homo sapiens, UniProt P43220). The assay is described as follows: Functional cAMP activity in the presence of 1% HSA. As to conditions: read-out: cAMP Rel EC50, hGLP-1R.
In another assay the target is human GcgR (Homo sapiens, UniProt P47871). The assay is described as follows: Functional cAMP activity in the presence of 1% HSA. The note with it: read-out: cAMP Rel EC50, hGcgR.
Assay [3] has as its target T1, hGIPR. The assay is described as follows: Functional cAMP activation in the presence of 0.1% casein (no HSA). The note with it: read-out: Relative cAMP EC50, hGIPR.
Assay [4] deals with T2, hGLP-1R. The description is as above. As to conditions: read-out: Relative cAMP EC50, hGLP-1R.
The target of another assay is hGcgR (Homo sapiens, UniProt P47871). Described as above. As to conditions: read-out: Relative cAMP EC50, hGcgR.
The mark [5] stands for this setting: in the presence of 0.1% casein (no HSA), geometric mean.
Setting [6] is: HEK-293 clonal cell line, in the presence of 1% HSA, geometric mean of relative EC50.
Setting [7] is: 0.1% casein, no HSA, geometric mean.
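Throughout, for Relative cAMP EC50, hGIPR: intracellular cAMP rise after 30 min at 37 °C read by HTRF against a standard curve, scaled between buffer alone (0%) and top control ligand concentration (100%), four-parameter fit.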
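Throughout, for Relative cAMP EC50, hGLP-1R: intracellular cAMP rise after 30 min at 37 °C read by HTRF, normalized between buffer only (0%) and maximal control ligand (100%), four-parameter variable-slope fit.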
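Throughout, for Relative cAMP EC50, hGcgR: intracellular cAMP rise after 30 min at 37 °C, read by HTRF against a cAMP standard curve, scaled from buffer only (0%) to maximal control ligand response (100%).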

Chain of human GcgR (P47871 26-477): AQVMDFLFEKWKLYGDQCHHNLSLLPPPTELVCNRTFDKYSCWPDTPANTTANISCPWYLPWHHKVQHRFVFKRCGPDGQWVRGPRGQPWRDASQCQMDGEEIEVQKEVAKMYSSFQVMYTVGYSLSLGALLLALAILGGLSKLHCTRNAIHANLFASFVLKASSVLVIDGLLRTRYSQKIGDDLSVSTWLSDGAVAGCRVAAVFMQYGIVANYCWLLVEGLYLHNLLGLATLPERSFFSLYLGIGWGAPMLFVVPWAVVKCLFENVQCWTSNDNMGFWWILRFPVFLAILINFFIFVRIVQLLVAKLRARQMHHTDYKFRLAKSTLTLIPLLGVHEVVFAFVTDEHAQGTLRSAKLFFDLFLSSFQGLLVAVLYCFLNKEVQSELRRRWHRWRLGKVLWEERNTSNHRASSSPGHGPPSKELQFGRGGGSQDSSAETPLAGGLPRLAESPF
Chain of hGcgR (P47871 26-477): as above
T2 sequence (P43220 24-463): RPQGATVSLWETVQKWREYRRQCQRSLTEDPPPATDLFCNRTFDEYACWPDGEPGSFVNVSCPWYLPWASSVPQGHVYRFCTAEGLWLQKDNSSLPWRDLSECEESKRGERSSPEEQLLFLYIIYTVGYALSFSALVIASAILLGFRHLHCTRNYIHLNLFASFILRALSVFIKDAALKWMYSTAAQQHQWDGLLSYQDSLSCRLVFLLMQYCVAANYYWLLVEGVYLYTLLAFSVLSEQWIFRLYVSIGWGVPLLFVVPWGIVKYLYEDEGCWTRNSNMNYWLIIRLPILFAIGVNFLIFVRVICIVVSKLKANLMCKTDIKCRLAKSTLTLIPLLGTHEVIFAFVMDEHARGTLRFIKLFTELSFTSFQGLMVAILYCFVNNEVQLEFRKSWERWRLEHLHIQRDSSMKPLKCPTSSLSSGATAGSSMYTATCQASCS

As for “H-Y[Aib]QGT[αMePhe(2-F)]TSD[4Pal][αMeS]I[αMeL]LD[Orn]K([AEEA-γGlu-C18 diacid])AQ[αMe4Pal]EFI[dE][αMeY]LVEGGPSSGAPPPEGE-NH2 [Example 1158]”, the concentration giving a half-maximal response (EC50) at hGIPR [1] came to 1.42 nM; on hGLP-1R [2], 46.8 nM; on human GcgR, 301 nM; at hGIPR [3] (setting [5]), 0.0126 nM; on hGLP-1R [4] (setting [5]), 0.419 nM; at hGcgR (setting [5]) it was 2.19 nM.

Consider “H-Y[Aib]QGTFTSD[4Pal]SR[αMeL]LDKK([γGlu-γGlu-C18 diacid])AQ[αMe4Pal]AFIEYLIAGGESSGAPPPSGSEE-NH2 [Example 965]”, for which the EC50 at hGIPR [1] was 23.2 nM; on hGLP-1R [2], 194 nM; at human GcgR, 430 nM; at hGIPR [3] (setting [5]), 0.13 nM; at hGLP-1R [4] (setting [5]) it was 1.39 nM; on hGcgR (setting [5]) it was 3.35 nM.

Take “H-Y[Aib]QGTFTSD[4Pal]SQ[αMeL]LD[Orn]K([γGlu-γGlu-C18 diacid])AQ[Aib]AFIE[αMeY]LLEGGPSSGAPPPSGSEE-NH2 [Example 946]”: the EC50 on hGIPR [1] was 57.4 nM; at hGLP-1R [2] it was 576 nM; on human GcgR it was 1950 nM; on hGIPR [3] (setting [5]), 0.353 nM; on hGLP-1R [4] (setting [5]) it was 2.05 nM; at hGcgR (setting [5]), 16.5 nM.

Regarding “H-Y[Aib]QGT[αMePhe(2-F)]TSD[4Pal]SI[αMeL]LD[Orn]K([AEEA-γGlu-C18 diacid])AQ[αMe4Pal]EFI[dE][αMeY]LQEGGPSSGEPPPSGS-NH2 [Example 648]”, the EC50 is 1.4 nM on hGIPR [1]; 86.5 nM on hGLP-1R [2]; 1170 nM on human GcgR; 0.0392 nM on hGIPR [3]; 1.76 nM on hGLP-1R [4]; 20.3 nM on hGcgR.

In the case of “H-Y[Aib]QGT[αMePhe(2-F)]TSD[Phe(4-CN)]SILLDKQAQK([AEEA-AEEA-γGlu-C20 diacid])AFIEYLLEGGPSSGEPPPSAG-NH2 [Example 350]”, the EC50 on hGIPR [1] was found to be 33.6 nM; at hGLP-1R [2] it was 360 nM; at human GcgR it was 3760 nM; on hGIPR [3] (setting [5]) it was 0.106 nM; on hGLP-1R [4] (setting [5]), 0.776 nM; at hGcgR (setting [5]), 10.4 nM.

Turning to “H-Y[Aib]QGTFTSDYSK[αMeL]LDKK([AEEA-γGlu-C20 diacid])AQQAFIEYLIAGGPSSGAPPPSSE-NH2 [Example 322]”, the EC50 on hGIPR [1] came out at 89.3 nM; on hGLP-1R [2] it was 135 nM; on human GcgR, 2620 nM; at hGIPR [3] (setting [5]), 0.264 nM; at hGLP-1R [4] (setting [5]), 0.394 nM; on hGcgR (setting [5]), 5.41 nM.

As to `CC[C@H](C)[C@H](NC(=O)[C@H](Cc1ccccc1)NC(=O)[C@H](C)NC(=O)C(C)(C)NC(=O)[C@H](CCC(N)=O)NC(=O)[C@H](C)NC(=O)[C@H](CCCCNC(=O)COCCOCCNC(=O)COCCOCCNC(=O)CC[C@H](NC(=O)CCCCCCCCCCCCCCCCC(=O)O)C(=O)O)NC(=O)[C@H](CCCCN)NC(=O)[C@H](CC(=O)O)NC(=O)[C@H](CC(C)C)NC(=O)[C@](C)(CC(C)C)NC(=O)[C@H](CCCCN)NC(=O)[C@H](CO)NC(=O)[C@H](Cc1ccccc1)NC(=O)[C@H](CC(=O)O)NC(=O)[C@H](CO)NC(=O)[C@@H](NC(=O)[C@H](Cc1ccccc1)NC(=O)[C@@H](NC(=O)CNC(=O)[C@H](CCC(N)=O)NC(=O)C(C)(C)NC(=O)[C@@H](N)Cc1ccc(O)cc1)[C@@H](C)O)[C@@H](C)O)C(=O)N[C@@H](CCC(=O)O)C(=O)N[C@@H](Cc1ccc(O)cc1)C(=O)N[C@@H](CC(C)C)C(=O)N[C@@H](CC(C)C)C(=O)N[C@@H](C)C(=O)NCC(=O)NCC(=O)N1CCC[C@H]1C(=O)N[C@@H](CO)C(=O)N[C@@H](CO)C(=O)NCC(=O)N[C@@H](CCC(=O)O)C(=O)N1CCC[C@H]1C(=O)N1CCC[C@H]1C(=O)N1CCC[C@H]1C(=O)N[C@@H](CO)C(=O)N[C@@H](CCC(=O)O)C(=O)NCC(N)=O` [Example 25], the 50% effective concentration (EC50) at hGIPR [1] stood at 19.8 nM; on hGLP-1R [2] it was 520 nM; at human GcgR, 939 nM; at hGIPR [3] (setting [5]) it was 0.128 nM; on hGLP-1R [4] (setting [5]) it was 3.34 nM; at hGcgR (setting [5]), 6.8 nM.

In the case of “H-Y[Aib]QGT[αMePhe(2-F)]TSD[4Pal]SI[αMeL]LD[Orn]K([AEEA-γGlu-C18 diacid])AQ[αMe4Pal][Orn]FI[dE][αMeY]LEEGGPSSGEPPPEGT-NH2 [Example 506]”, the concentration for a half-maximal effect (EC50) on hGIPR [1] amounted to 28.7 nM; on hGLP-1R [2], 224 nM; on human GcgR, 2330 nM; on hGIPR [3], 0.308 nM; at hGLP-1R [4] it was 2.14 nM; at hGcgR it was 17.1 nM.

“H-Y[Aib]QGT[αMePhe(2-F)]TSD[4Pal]SI[αMeL]LD[Orn]K([γGlu-γGlu-C18 diacid])AQ[αMe4Pal]EFI[dE][αMeY]LIEGGPSSGAPPPSGE-NH2 [Example 616]”: the EC50 on hGIPR [1] was determined as 0.467 nM; at hGLP-1R [2] it was 28.9 nM; at human GcgR, 734 nM; at hGIPR [3] it was 0.00727 nM; at hGLP-1R [4], 0.29 nM; on hGcgR it was 6.58 nM.

Regarding “Y[Aib]QGT[αMePhe(2-F)]TSD[4Pal][αMeS]I[αMeL]LD[Orn]K([γGlu-γGlu-C18 diacid])AQ[Aib][Orn]FI[dE]YLIEGGPSSGEPPPSGTE-NH2 [Example 521]”, the EC50 came to 0.967 nM at hGIPR [1]; 24.8 nM on hGLP-1R [2]; 275 nM on human GcgR; 0.0164 nM on hGIPR [3]; 0.341 nM at hGLP-1R [4]; 4.04 nM at hGcgR.

On to “H-Y[Aib]QGTFTSD[4Pal]S[Orn][αMeL]LD[Orn]K([γGlu-γGlu-C18 diacid])AQ[αMe4Pal][Orn]FIE[αMeY]LLAGGPSSGAPPPSGSEE-NH2 [Example 997]”, for which the 50% effective concentration (EC50) came out at 27.8 nM on hGIPR [1] (setting [6]); 1880 nM on hGLP-1R [2] (setting [6]); 527 nM on human GcgR (setting [6]); 0.373 nM at hGIPR [3] (setting [5]); 20.7 nM on hGLP-1R [4] (setting [5]); 5.01 nM on hGcgR (setting [5]).

Take “H-Y[Aib]QGTFTSDFSK[αMeL]LDKK([AEEA-γGlu-C18 diacid])AQ[Aib]AFIEYLIEGGESSGAPPPSGS-NH2 [Example 215]”: the EC50 turned out to be 87.3 nM at hGIPR [1]; 162 nM on hGLP-1R [2]; 1510 nM at human GcgR; 0.418 nM on hGIPR [3] (setting [5]); 0.803 nM at hGLP-1R [4] (setting [5]); 9.77 nM on hGcgR (setting [5]).

Take “H-Y[Aib]QGT[αMePhe(2-F)]TSD[4Pal][αMeS]ILLD[Orn]K([γGlu-γGlu-C18 diacid])AQ[Aib][Orn]FI[dE]YLIEGGPSSGEPPPSGTEE-NH2 [Example 576]”: the EC50 on hGIPR [1] came out at 8.12 nM; on hGLP-1R [2], 56.8 nM; at human GcgR it was 646 nM; at hGIPR [3], 0.0723 nM; at hGLP-1R [4], 0.528 nM; on hGcgR it was 6.37 nM.

For “H-Y[Aib]QGT[αMePhe(2-F)]TSD[4Pal][αMeS]I[αMeL]LD[Orn]K([AEEA-γGlu-C18 diacid])AQ[αMe4Pal]EFI[dE][αMeY]LIEGGPPS[Aib][Orn]PPPSGGGE-NH2 [Example 1199]”, the EC50 on hGIPR [1] was found to be 0.733 nM; on hGLP-1R [2] it was 63.9 nM; on human GcgR, 352 nM; at hGIPR [3] (setting [7]), 0.0076 nM; on hGLP-1R [4] (setting [7]) it was 0.5 nM; at hGcgR (setting [7]), 2.05 nM.

On to “H-Y[Aib]QGTFTSD[4Pal]S[Orn][αMeL]LD[Orn]K([γGlu-γGlu-C18 diacid])AQ[αMe4Pal]EFIE[αMeY]LLAGGPSSGAPPPSGSEE-NH2 [Example 996]”, for which the EC50 was 11.2 nM on hGIPR [1] (setting [6]); 4810 nM on hGLP-1R [2] (setting [6]); 1160 nM at human GcgR (setting [6]); 0.2 nM on hGIPR [3] (setting [5]); 98.1 nM on hGLP-1R [4] (setting [5]); 14.9 nM on hGcgR (setting [5]).

“Y[Aib]QGTFTSD[4Pal]SQ[αMeL]LD[Orn]K([γGlu-γGlu-C18 diacid])AQ[αMe4Pal]AFIEYLIE[Aib]GPSSGAPPPSGS-NH2 [Example 935]”: the EC50 on hGIPR [1] was determined as 16.9 nM; on hGLP-1R [2], 172 nM; at human GcgR, 659 nM; on hGIPR [3] (setting [5]), 0.123 nM; on hGLP-1R [4] (setting [5]), 1.71 nM; at hGcgR (setting [5]), 4.04 nM.
